Data reported in US20230241159A1, “Peptide Having Mesenchymal Stem Cell Mobilizing Activity” (StemRIM Inc., priority 2020, published 2023).

How the values were obtained:
[1] = tested on: cerebral infarction model rat; assay: Cerebral infarction model rat (right MCA occlusion), cerebral infarction volume ratio; format: in vivo, Crl:CD (SD) rats; details: 2 mg/kg tail vein at 105 minutes and 24 hours after right MCA occlusion; 48 hours after occlusion; control 34.1±1.1%; p<0.01
Description: Crl:CD (SD) rats (7 weeks old, male) were obtained from Charles River Laboratories, Japan, and after 6 days of acclimation, they were divided into the control group (n=8) and the peptide-administered group (n=8). On the following day of grouping, the rats were fixed in the supine position under 2% isoflurane inhalation anesthesia (anesthesia background: laughing gas:oxygen=7:3). To regulate body temperature during surgery, a thermometer probe connected to a digital thermometer was inserted into the rectum, and changes in the rectal temperature before and after surgery were monitored. […]
Forty-eight hours after the right MCA occlusion, the animals were decapitated under anesthesia with sodium pentobarbital (50 mg/kg, intraperitoneal administration), and the entire brain was excised to prepare brain sections with a thickness of 2 mm. […] The resulting photographs were subjected to image analysis to obtain actual measurements of the cerebral infarction area and cross-sectional area of the brain, and the cerebral infarct volume and the total brain volume from 4 mm anterior to bregma to 6 mm posterior to bregma were calculated using the calculation formula below. In addition, the cerebral infarction volume ratio was calculated from the cerebral infarction volume and the total volume of the brain (cerebral infarction volume ratio (%)=cerebral infarction volume/total brain volume x 1001. […]

[2] = tested on: inflammatory bowel disease (IBD) model mice; assay: Dextran sulfate sodium (DSS)-induced inflammatory bowel disease (IBD) model mice; format: in vivo, BALB/c mice
Description: Dextran sodium sulfate (DSS) (molecular weight 36,000 to 50,000, manufactured by MP Biomedicals, Product No. 160110) was dissolved in purified water to prepare a 2.5% (w/v) DSS aqueous solution. In addition, the peptide 1r10 (TFA salt) consisting of the amino acid sequence of SEQ ID NO: 1 was chemically synthesized by the solid phase method and used as the test substance.
BALB/c mice (9 weeks old, male) were allowed to drink the 2.5% DSS aqueous solution freely for 7 days to induce colitis. After that, the drinking was changed from DSS to tap water, and the large intestine was collected 3 days later (10 days after the start of drinking the DSS aqueous solution).
The IBD model mice prepared as described above were divided into the peptide 1r10 administration group (n=8) and the control group (n=8). Peptide administration was carried out by injecting into the tail vein, the peptide 1r10 solution adjusted to a concentration of 0.5 mg/mL using physiological saline as a solvent at an amount of 10 mL/kg on Days 1, 4, 7, 8 and 9 after the start of drinking the DSS aqueous solution (peptide dose of 5 mg/kg). The control group was injected with physiological saline solution at a dose of 10 mL/kg into the tail vein on Days 1, 4, 7, 8 and 9 after the start of drinking the DSS aqueous solution.
For 10 days from the start of drinking the DSS aqueous solution, the mice were weighed and observed for the symptoms (stool condition and bleeding) every day except Saturdays, Sundays, and holidays, and the degree of symptoms was evaluated by calculating the DAI (disease activity index) score. The DAI score was calculated by scoring the weight loss rate, stool condition, and stool bleeding as shown in the table below, and summing the scores of these three items. The scoring criteria were partly based on the method of Li et al. (PLoS One. 2015 Dec. 7; 10 (12): e0144101).
In addition, the length of the large intestine (from the colon to the rectum) collected 10 days after the start of drinking DSS was measured using a digital caliper.

[3] = tested on: atopic dermatitis model mice; assay: MC903-induced atopic dermatitis model mice; format: in vivo, C57BL/6 mice
Description: MC903 (generic name: Calcipotriol) was used to induce atopic dermatitis (hereinafter, also referred to as “AD”) in mice. In addition, the peptide 1r10 (TFA salt) described in Reference Example 1 was used as the test substance.
C57BL/6 mice (C57BL/6 JJcl, 7-8 weeks old, male, microbial grade SPF) were obtained from Japan Claire Co., Ltd., acclimated in the animal breeding room for 5 days or more, and then subjected to the following experiments. An ethanol-adjusted MC903 solution was applied to the skin of the auricle of the mice at a dose of 2.25 nmol MC903/ear/once/day five times a week for 2 weeks (ten times in total) to induce atopic dermatitis (AD). This MC903-induced AD model is a model in which AD-like pathology can be reproduced in a short period of time (1-2 weeks) by artificially inducing the secretion of TSLP from epithelial cells, which is actually seen in AD patients, thereby eliciting a series of type 2 immune response cascades (Li M et al., Proc Natl Acad Sci USA. 2006; 103:11736-41.).
They were then divided into the control group and the peptide administration group (n=7 in each group), while the groups were equalized based on the auricle thickness in consideration of the difference in the severity of inflammation between individuals. For peptide administration, the solution of peptide 1r10 adjusted to 0.3 mg/mL with physiological saline was injected into the tail vein at a volume of 5 mL/kg ([…]) twice in total, once on the grouping day (Day 15) and once during the following 4 days (Day 16 to Day 19). For the control group a solution of bovine serum albumin (BSA) adjusted to 0.3 mg/mL with physiological saline was injected into the tail vein at a volume of 5 mL/kg (BSA dose of 1.5 mg/kg) twice in total, once on the grouping day (Day 15) and once during the following 4 days (Day 16 to Day 19).
During the peptide administration period (Day 15 to Day 19), ear swellings were measured daily to determine edema. Scaling, which is the main symptom of AD, was determined by photography (three times a week) using a digital camera (E-Ml II; Olympus) from a fixed base at a height of 13-14 cm from the auricle.
On the 4th day (Day 19) after the start of peptide administration, mice were placed under the influence of isoflurane anesthesia and euthanized with cervical spine dislocation. The skin at auricular inflammation site and its surroundings was quickly excised and collected while on ice to prevent protein denaturation of the sample. After removing excess hair and skin with tweezers, the collected auricular skin was immersed in 10% formalin and fixed at 4° C. overnight while shaking on ice using a shaker. After fixation, the skin was thoroughly washed with phosphate buffered saline (PBS) and trimmed, and then a paraffin block was made using an automatic embedding device (Excelsior ES; Thermo Scientific) with attention to the tissue polarity in the dorsoventral axis/left-right axis specific to the skin). Then, it was sliced (5 μm thick) with a rotary microtome (HM 325; Thermo Scientific), fixed on a slide glass, and subjected to various staining. As pathological analysis, skin thickness and infiltration of immune cells were evaluated by histochemical staining and fluorescent immunostaining, respectively.
To quantitatively evaluate the healing condition of the site of inflammation, hematoxylin-eosin (HE) staining of the paraffin thin sections (5 μm thick) of skin tissue generated as described above was performed to measure the dermal thickness. Specifically, three sections were prepared for each individual, and each section was photographed with a microscope (Keyence BZ-X710) at one site each of the center of inflammation, head side, and tail side (that is, a total of 9 sites were photographed per individual). […]

mesenchymal stem cells = assay: Solid-phase culture of peripheral blood after administration of HMGB1 peptide 1-44 (earlier experiments of the inventors); format: in vivo
Description: In addition, the colonies obtained as a result of culturing, on a solid phase, peripheral blood after administration of a peptide consisting of amino acid residues 1-44 of the human HMGB1 protein (hereinafter, HMGB1 peptide 1-44), which has an activity of mobilizing mesenchymal stem cells into peripheral blood, have been confirmed to have adherability to solid phase and self-renewal ability, and to be PDGFRα positive. They have also been confirmed to have a gene expression profile characteristic to mesenchymal stem cells, based on the results of clustering the transcriptome analysis data and performing gene ontology analysis.

[4] = 5 mg/kg tail vein, 8 to 10 days after the start of drinking DSS, versus saline control

Row | Substance | cerebral infarction volume ratio (mean±standard error) [1] | body weight 10 days after the start of drinking the DSS aqueous solution ([2]; 5 mg/kg tail vein on Days 1, 4, 7, 8 and 9, Day 10) | changes in mouse body weight during the test period ([2]; 5 mg/kg tail vein on Days 1, 4, 7, 8 and 9 after start of drinking DSS, versus saline control) | DAI (disease activity index) score [2, 4] | stool score (sum of stool condition score and bleeding score) [2, 4] | colon length (length of the large intestine) ([2]; 5 mg/kg tail vein, ten days after the start of drinking DSS, versus saline control) | dermis thickness ([3]; 1.5 mg/kg tail vein twice, 4th day after start of administration (Day 19), HE staining, versus control) | scaling in the auricle ([3]; 1.5 mg/kg tail vein twice, 4 days after start of peptide administration, versus BSA control) | number of CD45-positive cells (infiltration of immune cells) in auricular skin sections ([3]; 1.5 mg/kg tail vein twice, Day 19, high power field 400×, versus control) | auricular thickness (edema) ([3]; 1.5 mg/kg tail vein twice, peptide administration period Day 15 to Day 19, versus BSA control) | changes in mouse body weight during the period of the study ([3]; Day 15 to Day 19, between peptide and control groups, p>0.05, repeated one-way ANOVA) | dermis thickness ([3]; dose of 0.5 mg/kg, versus control (data not shown)) | number of colonies obtained by solid-phase culture of peripheral blood, versus physiological saline (mesenchymal stem cells)
1 | 1r10: artificial sequence peptide consisting of the amino acid sequence of SEQ ID NO: 1 (30 amino acids) (IMWLCQYFFQCHKCAVKKKTWKEKKDRRHP) [Peptide 1r10] | 27.2±1.2% | showed a tendency to recover body weight | the degree of decrease was slower in the peptide-administered group than in the control group | lower in the peptide-administered group than in the control group | lower in the peptide-administered group than in the control group | longer than that of the control group | statistically significant decrease in dermis thickness | reduction of scaling in the auricle was observed | statistically significant decrease in the number of CD45-positive cells | statistically significant reduction in auricular thickness | not significantly different between the groups | statistically significant decrease in dermis thickness | 
2 | HMGB1 peptide 1-44: peptide consisting of amino acid residues 1-44 of the human HMGB1 protein (MGKGDPKKPRGKMSSYAFFVQTCREEHKKKHPDASVNFSEFSKK; UniProt P09429 1-44, looked up, fragment) |  |  |  |  |  |  |  |  |  |  |  |  | larger in the peripheral blood after administration of HMGB1 peptide 1-44 than in the peripheral blood after administration of physiological saline
